Results: US20150087605A1 (priority 2013, published 2015)
Read-outs that look alike come from different tables or passages of the source.

Legend:
[1] = target: Anthrax Lethal Factor (LF) (Bacillus anthracis, UniProt P15917); experiment: biochemical; assay type: binding
[2] = tested on: RAW 264.7 macrophages treated with LeTx (PA and LF); experiment: cells; settings: Mus musculus, RAW264.7, read-out: IC50 Cell Viability
LF protease activity = LF protease activity (Bacillus anthracis, UniProt P15917); experiment: biochemical
Chain of LF protease activity (P15917 34-809 limits assumed): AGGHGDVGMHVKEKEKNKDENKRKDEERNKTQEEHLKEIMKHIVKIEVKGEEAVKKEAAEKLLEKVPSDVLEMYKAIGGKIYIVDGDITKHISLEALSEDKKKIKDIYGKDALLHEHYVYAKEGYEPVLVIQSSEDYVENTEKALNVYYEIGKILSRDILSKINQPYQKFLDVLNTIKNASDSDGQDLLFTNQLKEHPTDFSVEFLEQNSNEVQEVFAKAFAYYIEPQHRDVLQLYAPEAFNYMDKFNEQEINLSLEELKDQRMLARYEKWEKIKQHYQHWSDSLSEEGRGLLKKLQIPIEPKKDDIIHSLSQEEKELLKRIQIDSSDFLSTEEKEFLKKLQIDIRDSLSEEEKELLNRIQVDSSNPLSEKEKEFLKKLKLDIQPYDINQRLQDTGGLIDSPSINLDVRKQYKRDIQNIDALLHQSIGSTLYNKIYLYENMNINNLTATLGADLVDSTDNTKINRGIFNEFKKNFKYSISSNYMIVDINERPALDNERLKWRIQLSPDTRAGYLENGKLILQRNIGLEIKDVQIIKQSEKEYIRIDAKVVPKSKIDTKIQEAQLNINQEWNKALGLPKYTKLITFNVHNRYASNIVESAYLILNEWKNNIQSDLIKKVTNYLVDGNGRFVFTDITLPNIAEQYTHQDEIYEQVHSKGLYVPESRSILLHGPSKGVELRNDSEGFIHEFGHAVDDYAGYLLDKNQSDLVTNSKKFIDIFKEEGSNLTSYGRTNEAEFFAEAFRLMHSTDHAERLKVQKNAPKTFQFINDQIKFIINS

[3] = tested on: RAW 264.7 macrophages treated with LeTx (PA and LF)
COX-2 = COX-2 (Homo sapiens, UniProt P35354); settings: read-out: IC50 COX-2; cited from earlier work
Chain of COX-2 (P35354 18-604): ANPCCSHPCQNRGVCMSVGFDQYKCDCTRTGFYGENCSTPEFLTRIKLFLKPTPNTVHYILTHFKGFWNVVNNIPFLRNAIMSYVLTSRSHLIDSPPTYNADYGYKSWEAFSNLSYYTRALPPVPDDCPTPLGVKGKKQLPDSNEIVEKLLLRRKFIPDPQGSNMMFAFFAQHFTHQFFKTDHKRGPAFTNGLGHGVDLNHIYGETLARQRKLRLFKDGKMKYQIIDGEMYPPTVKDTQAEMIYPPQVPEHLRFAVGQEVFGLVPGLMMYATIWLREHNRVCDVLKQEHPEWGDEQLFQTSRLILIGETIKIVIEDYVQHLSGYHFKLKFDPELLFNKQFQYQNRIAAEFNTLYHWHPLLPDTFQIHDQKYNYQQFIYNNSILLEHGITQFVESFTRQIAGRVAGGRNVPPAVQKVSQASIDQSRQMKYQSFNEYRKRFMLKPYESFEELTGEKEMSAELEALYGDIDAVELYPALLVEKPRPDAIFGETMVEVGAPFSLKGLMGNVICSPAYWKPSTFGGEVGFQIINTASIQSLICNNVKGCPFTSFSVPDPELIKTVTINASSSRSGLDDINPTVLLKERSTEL

COX-1 = COX-1 (Homo sapiens, UniProt P23219); settings: read-out: IC50 COX-1; cited from earlier work
Chain of COX-1 (P23219 24-599): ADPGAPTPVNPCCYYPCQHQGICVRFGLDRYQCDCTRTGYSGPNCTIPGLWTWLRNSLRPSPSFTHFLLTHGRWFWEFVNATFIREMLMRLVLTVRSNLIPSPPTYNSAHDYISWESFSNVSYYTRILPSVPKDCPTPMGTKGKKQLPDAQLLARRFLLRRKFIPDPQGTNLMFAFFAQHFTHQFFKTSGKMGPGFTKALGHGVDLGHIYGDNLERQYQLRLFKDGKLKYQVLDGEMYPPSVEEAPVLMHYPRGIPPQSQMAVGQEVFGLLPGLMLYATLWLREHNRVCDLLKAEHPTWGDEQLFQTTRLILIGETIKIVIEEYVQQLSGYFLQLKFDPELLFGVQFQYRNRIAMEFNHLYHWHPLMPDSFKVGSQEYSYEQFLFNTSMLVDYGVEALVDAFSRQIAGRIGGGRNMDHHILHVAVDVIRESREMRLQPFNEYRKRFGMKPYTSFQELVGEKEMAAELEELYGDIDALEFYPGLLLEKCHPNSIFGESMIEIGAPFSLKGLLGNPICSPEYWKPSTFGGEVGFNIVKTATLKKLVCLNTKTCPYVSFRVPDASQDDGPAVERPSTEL

[4] = in vivo, cited from earlier work

Chain of Anthrax Lethal Factor (LF) (P15917 34-809 limits assumed): as the sequence (P15917 34-809 limits assumed) above

CCCCc1ccc(C(=O)O)nc1 [Fusaric Acid]
Kd [1]: 4.5 µM
IC50 [2]: 75.3 µM
IC50 (LF protease activity; IC50 Protease Activity): 530 µM

COc1ccc2cc([C@H](C)C(=O)O)ccc2c1 [Naproxen, (S)-(+)-6-Methoxy-α-methyl-2-naphthaleneacetic acid]
inhibition of LF protease activity (in words) (LF protease activity): failed to inhibit LF
inhibition of LeTx cytotoxicity (in words) [3]: failed to inhibit LeTx

CC1=C(CC(=O)O)c2cc(F)ccc2/C1=C\c1ccc([S+](C)[O-])cc1 (stereo not shown) [Sulindac]
Kd [1]: 2.8 µM
IC50 (COX-2): 25 µM
IC50 (COX-1): 41.3 µM
IC50 [2]: 31.7 µM
IC50 (LF protease activity; IC50 Protease Activity): 173 µM
mean half-life ([4]; 150 mg): 7.8 h
maximum concentration in human blood plasma [4]: 5.71 ± 2.17 µg/mL

CCCCc1ccc(C(=O)NCCCN=[N+]=[N-])nc1 [fusaric acid-N3]
IC50 [2]: 164 µM
IC50 (LF protease activity; IC50 (fluorogenic substrate assay)): 1100 µM

CCCCc1ccc(C(=O)NCCCn2cc(CNC(C)=O)nn2)nc1 [fusaric acid-bMR]
IC50 (LF protease activity; IC50 Protease Activity): 1.2 ± 0.36 µM
IC50 ([3]; mouse): 0.721 µM

CSc1ccc(/C=C2/C(C)=C(CC(=O)O)c3cc(F)ccc32)cc1 [sulindac sulfide, Sulindac Sulfide]
IC50 [2]: 20.4 µM
IC50 (LF protease activity; IC50 Protease Activity): 19.1 µM

CC1=C(CC(=O)O)c2cc(F)ccc2/C1=C\c1ccc(S(C)(=O)=O)cc1 [sulindac sulfone, Sulindac Sulfone]
IC50 (LF protease activity; read-out: IC50 Protease Activity): 185 µM
IC50 ([3]; read-out: IC50 Cell Viability): 56.6 µM

CC1=C(CC(=O)NCCCN=[N+]=[N-])c2cc(F)ccc2/C1=C\c1ccc([S+](C)[O-])cc1 (stereo not shown) [sulindac-N3]
IC50 [2]: 90.1 µM
IC50 (LF protease activity; IC50 Protease Activity): 420 µM
